Reference: patent US20240148627A1, “[…] FOR THE SKIN” (priority 2021, published 2024)

Test system: Vaccinia virus Elstree strain
Assay type: cell-based

C=O [formaldehyde]
Reference trial inactivation of the virus: 3.13E+00 log DIT C50
